Results from publication PMC5218480 (PLoS ONE, 2017).

Tested on: MV-4-11 cells
Experiment: Gene expression microarray analysis (Affymetrix PrimeView) and GSEA
Format: cell-based, human
Set-up: RFU PODN (11730768_x_at) / Fold change /veh PODN (11730768_x_at) / RFU LINC00158 (11744669_a_at) / Fold change /veh LINC00158 (11744669_a_at) / RFU DUSP10 (11751237_a_at) / Fold change /veh DUSP10 (11751237_a_at) / RFU ID3 (11757404_x_at) / Fold change /veh ID3 (11757404_x_at) / RFU PLEKHG5 (11737974_s_at) / Fold change /veh PLEKHG5 (11737974_s_at) / RFU LRRC4B (11730491_at) / Fold change /veh LRRC4B (11730491_at) / RFU GIMAP4 (11747438_a_at) / Fold change /veh GIMAP4 (11747438_a_at) / RFU KRT8 (11758183_x_at) / Fold change /veh KRT8 (11758183_x_at) / RFU CNN1 (11734310_a_at) / Fold change /veh CNN1 (11734310_a_at) / RFU VPS37D (11726825_at) / Fold change /veh VPS37D (11726825_at) / RFU C10orf10 (11716522_x_at) / Fold change /veh C10orf10 (11716522_x_at) / RFU KIR2DL2 /// KIR2DL4 /// KIR2DL5A /// KIR2DL5B /// KIR2DS1 /// KIR2DS2 /// KIR2DS3 /// KIR2DS4 /// KIR3DL3 /// KIR3DL3 /// KIR3DS1 (11738374_at) / Fold change /veh KIR2DL2 /// KIR2DL4 /// KIR2DL5A /// KIR2DL5B /// KIR2DS1 /// KIR2DS2 /// KIR2DS3 /// KIR2DS4 /// KIR3DL3 /// KIR3DL3 /// KIR3DS1 (11738374_at) / RFU C1QL1 (11718748_at) / Fold change /veh C1QL1 (11718748_at) / RFU TMPRSS4 (11747572_a_at) / Fold change /veh TMPRSS4 (11747572_a_at) / RFU HAMP (11756126_x_at) / Fold change /veh HAMP (11756126_x_at) / RFU RNFT2 (11725882_a_at) / Fold change /veh RNFT2 (11725882_a_at) / RFU NR4A2 (11747474_a_at) / Fold change /veh NR4A2 (11747474_a_at) / RFU ABCC12 (11746883_a_at) / Fold change /veh ABCC12 (11746883_a_at) / RFU TMEM136 (11760407_x_at) / Fold change /veh TMEM136 (11760407_x_at) / RFU CLDN22 /// WWC2 (11732394_at) / Fold change /veh CLDN22 /// WWC2 (11732394_at) / RFU HLA-DPB1 (11760878_x_at) / Fold change /veh HLA-DPB1 (11760878_x_at) / RFU SPINT1 (11716480_a_at) / Fold change /veh SPINT1 (11716480_a_at) / RFU GAP43 (11754022_s_at) / Fold change /veh GAP43 (11754022_s_at) / RFU A4GNT (11735810_at) / Fold change /veh A4GNT (11735810_at) / RFU PRB3 (11715151_x_at) / Fold change /veh PRB3 (11715151_x_at) / RFU TUBB4B (11761932_at) / Fold change /veh TUBB4B (11761932_at) / RFU CAPN14 (11732068_a_at) / Fold change /veh CAPN14 (11732068_a_at) / RFU TMCC2 (11721928_a_at) / Fold change /veh TMCC2 (11721928_a_at) / RFU IRGQ (11745062_a_at) / Fold change /veh IRGQ (11745062_a_at) / RFU FAM174B (11720279_a_at) / Fold change /veh FAM174B (11720279_a_at) / RFU TMPRSS4 (11748680_a_at) / Fold change /veh TMPRSS4 (11748680_a_at) / RFU FAM212B (11763350_a_at) / Fold change /veh FAM212B (11763350_a_at) / RFU PLEKHG5 (11743358_a_at) / Fold change /veh PLEKHG5 (11743358_a_at) / RFU ZSCAN30 (11745921_a_at) / Fold change /veh ZSCAN30 (11745921_a_at) / RFU CMKLR1 (11741424_a_at) / Fold change /veh CMKLR1 (11741424_a_at) / RFU LOC101060620 /// MAPK8IP1 (11723275_at) / Fold change /veh LOC101060620 /// MAPK8IP1 (11723275_at) / RFU SPTSSB (11747773_x_at) / Fold change /veh SPTSSB (11747773_x_at) / RFU PRSS12 (11739890_at) / Fold change /veh PRSS12 (11739890_at) / RFU BIN1 (11741810_x_at) / Fold change /veh BIN1 (11741810_x_at) / RFU WNT11 (11732464_a_at) / Fold change /veh WNT11 (11732464_a_at) / RFU C10orf10 (11716521_a_at) / Fold change /veh C10orf10 (11716521_a_at) / RFU C5orf56 (11738089_at) / Fold change /veh C5orf56 (11738089_at) / RFU CYB561 (11721691_x_at) / Fold change /veh CYB561 (11721691_x_at) / RFU ANKRD19P (11752326_a_at) / Fold change /veh ANKRD19P (11752326_a_at) / RFU OR2T12 /// OR2T33 /// OR2T8 (11738714_s_at) / Fold change /veh OR2T12 /// OR2T33 /// OR2T8 (11738714_s_at) / RFU VCAN (11748164_a_at) / Fold change /veh VCAN (11748164_a_at) / RFU JSRP1 (11732532_at) / Fold change /veh JSRP1 (11732532_at) / RFU KRTAP10-11 (11738290_x_at) / Fold change /veh KRTAP10-11 (11738290_x_at) / RFU MYO3A (11730013_a_at) / Fold change /veh MYO3A (11730013_a_at) / RFU EBF3 (11725865_a_at) / Fold change /veh EBF3 (11725865_a_at) / RFU CAMK2N1 (11719241_x_at) / Fold change /veh CAMK2N1 (11719241_x_at) / RFU C5orf56 (11738088_a_at) / Fold change /veh C5orf56 (11738088_a_at) / RFU OLFML3 (11715873_a_at) / Fold change /veh OLFML3 (11715873_a_at) / RFU LOC100653217 /// NTM (11731650_a_at) / Fold change /veh LOC100653217 /// NTM (11731650_a_at) / RFU MAPK11 (11762145_a_at) / Fold change /veh MAPK11 (11762145_a_at) / RFU FIZ1 (11724087_x_at) / Fold change /veh FIZ1 (11724087_x_at) / RFU OASL (11726364_x_at) / Fold change /veh OASL (11726364_x_at) / RFU SOX15 (11748057_x_at) / Fold change /veh SOX15 (11748057_x_at) / RFU CD79A (11719716_a_at) / Fold change /veh CD79A (11719716_a_at) / RFU HIST1H1D (11736915_at) / Fold change /veh HIST1H1D (11736915_at) / RFU CASKIN2 (11723855_a_at) / Fold change /veh CASKIN2 (11723855_a_at) / RFU LOC730098 (11760151_x_at) / Fold change /veh LOC730098 (11760151_x_at) / RFU OR4N2 (11742367_at) / Fold change /veh OR4N2 (11742367_at) / RFU PRRT2 (11749266_a_at) / Fold change /veh PRRT2 (11749266_a_at) / RFU SNX32 (11753110_a_at) / Fold change /veh SNX32 (11753110_a_at) / RFU CDHR5 (11726645_a_at) / Fold change /veh CDHR5 (11726645_a_at) / RFU RCAN1 (11760418_a_at) / Fold change /veh RCAN1 (11760418_a_at) / RFU FAM167A (11723789_a_at) / Fold change /veh FAM167A (11723789_a_at) / RFU FAM26E (11764081_at) / Fold change /veh FAM26E (11764081_at) / RFU ISYNA1 (11749810_s_at) / Fold change /veh ISYNA1 (11749810_s_at) / RFU ACY1 (11761880_at) / Fold change /veh ACY1 (11761880_at) / RFU 11764098_at / Fold change /veh 11764098_at / RFU SAMD14 (11745864_x_at) / Fold change /veh SAMD14 (11745864_x_at) / RFU NPB (11741838_a_at) / Fold change /veh NPB (11741838_a_at) / RFU TMPRSS6 (11731388_a_at) / Fold change /veh TMPRSS6 (11731388_a_at) / RFU KRTAP10-2 (11738614_at) / Fold change /veh KRTAP10-2 (11738614_at) / RFU ARHGAP8 /// PRR5-ARHGAP8 (11727945_x_at) / Fold change /veh ARHGAP8 /// PRR5-ARHGAP8 (11727945_x_at) / RFU KRTAP5-7 /// NADSYN1 (11734609_at) / Fold change /veh KRTAP5-7 /// NADSYN1 (11734609_at) / RFU RASL12 (11751679_a_at) / Fold change /veh RASL12 (11751679_a_at) / RFU CDKN2B (11736163_a_at) / Fold change /veh CDKN2B (11736163_a_at) / RFU PRF1 (11729649_at) / Fold change /veh PRF1 (11729649_at) / RFU, ZNF638 /// ZNF638-IT1 / Fold change vs veh, ZNF638 /// ZNF638-IT1 / RFU, PANK3 / Fold change vs veh, PANK3 / RFU, SH3YL1 / Fold change vs veh, SH3YL1 / RFU, ZEB2 / Fold change vs veh, ZEB2 / RFU, NRIP1 / Fold change vs veh, NRIP1 / RFU, PTTG1IP / Fold change vs veh, PTTG1IP / RFU, CAPN2 / Fold change vs veh, CAPN2 / RFU, MED14 / Fold change vs veh, MED14 / RFU, SNORA58 / Fold change vs veh, SNORA58 / RFU, C1orf63 / Fold change vs veh, C1orf63 / RFU, LRRFIP1 / Fold change vs veh, LRRFIP1 / RFU, NDUFAF7 / Fold change vs veh, NDUFAF7 / RFU, SLC12A2 / Fold change vs veh, SLC12A2 / RFU, IBTK / Fold change vs veh, IBTK / RFU, ESF1 / Fold change vs veh, ESF1 / Fold change vs veh, TMEM50B / RFU, TAOK1 / Fold change vs veh, TAOK1 / RFU, ACBD3 / Fold change vs veh, ACBD3 / RFU, TMA16 / Fold change vs veh, TMA16 / RFU, RWDD3 / Fold change vs veh, RWDD3 / RFU, BCAT1 / Fold change vs veh, BCAT1 / RFU, EDEM3 / Fold change vs veh, EDEM3 / RFU, TMEM33 / Fold change vs veh, TMEM33 / RFU, WDR75 / Fold change vs veh, WDR75 / RFU, AHCTF1 / Fold change vs veh, AHCTF1 / RFU, TFRC / Fold change vs veh, TFRC / RFU, ZDHHC17 / Fold change vs veh, ZDHHC17 / RFU, NOM1 / Fold change vs veh, NOM1 / RFU, ARL8B / Fold change vs veh, ARL8B / RFU, ZBTB11 / Fold change vs veh, ZBTB11 / RFU, TAMM41 / Fold change vs veh, TAMM41 / RFU, KIAA1704 /// LOC100996395 / Fold change vs veh, KIAA1704 /// LOC100996395 / RFU, ING1 / Fold change vs veh, ING1 / RFU, TRMT61B / Fold change vs veh, TRMT61B / RFU, FUBP3 / Fold change vs veh, FUBP3 / RFU, TP53 / Fold change vs veh, TP53 / RFU, TNKS2 / Fold change vs veh, TNKS2 / RFU, ZFP14 / Fold change vs veh, ZFP14 / RFU, ACTR2 / Fold change vs veh, ACTR2 / RFU, PPP3R1 / Fold change vs veh, PPP3R1 / RFU, PIK3R1 / Fold change vs veh, PIK3R1 / RFU, HNRNPA1 / Fold change vs veh, HNRNPA1 / RFU, RNF170 / Fold change vs veh, RNF170 / RFU, ZNF28 / Fold change vs veh, ZNF28 / RFU, RNGTT / Fold change vs veh, RNGTT / RFU, OGT / Fold change vs veh, OGT / RFU, BRD1 / Fold change vs veh, BRD1 / RFU, MARS / Fold change vs veh, MARS / RFU, ZNF655 / Fold change vs veh, ZNF655 / RFU, FAHD1 / Fold change vs veh, FAHD1 / RFU, BDP1 / Fold change vs veh, BDP1 / RFU, LRRCC1 / Fold change vs veh, LRRCC1 / RFU, ARID1A / Fold change vs veh, ARID1A / RFU, ZNF146 / Fold change vs veh, ZNF146 / RFU, ZNF330 / Fold change vs veh, ZNF330 / RFU, GPN3 / Fold change vs veh, GPN3 / RFU, C9orf123 / Fold change vs veh, C9orf123 / RFU, N4BP2L2 / Fold change vs veh, N4BP2L2 / RFU, ARFIP1 / Fold change vs veh, ARFIP1 / RFU, FAM179B / Fold change vs veh, FAM179B / RFU, BCL10 / Fold change vs veh, BCL10 / RFU, UHRF1BP1L / Fold change vs veh, UHRF1BP1L / RFU, BET1 / Fold change vs veh, BET1 / RFU, CNOT2 / Fold change vs veh, CNOT2 / RFU, ZNF268 / Fold change vs veh, ZNF268 / Fold change vs veh, ZNF507 / RFU, DGCR2 / Fold change vs veh, DGCR2 / RFU, WDSUB1 / Fold change vs veh, WDSUB1 / Fold change vs veh, HSP90B1 /// MIR3652 / RFU, ADSS / Fold change vs veh, ADSS / RFU, GK / Fold change vs veh, GK / RFU, ZNF148 / Fold change vs veh, ZNF148 / RFU, TAF9 / Fold change vs veh, TAF9 / RFU, SLC1A5 / Fold change vs veh, SLC1A5 / RFU, SLMO2 / Fold change vs veh, SLMO2 / RFU, ABCC4 / Fold change vs veh, ABCC4 / RFU, LOC101060439 /// RAP1B / Fold change vs veh, LOC101060439 /// RAP1B / RFU, RFX7 / Fold change vs veh, RFX7 / RFU, GTPBP10 / Fold change vs veh, GTPBP10 / RFU, CNEP1R1 / Fold change vs veh, CNEP1R1 / RFU, BIVM-ERCC5 /// ERCC5 / Fold change vs veh, BIVM-ERCC5 /// ERCC5 / RFU, ILF3 / Fold change vs veh, ILF3 / RFU 11762660_at / Fold change /veh 11762660_at / RFU VCAN (11757783_s_at) / Fold change /veh VCAN (11757783_s_at) / RFU DDX43 (11728927_at) / Fold change /veh DDX43 (11728927_at) / RFU KRT8 (11758188_x_at) / Fold change /veh KRT8 (11758188_x_at) / RFU NKD1 (11759106_at) / Fold change /veh NKD1 (11759106_at) / RFU SRD5A1 (11742802_a_at) / Fold change /veh SRD5A1 (11742802_a_at) / RFU TPSAB1 /// TPSB2 (11721975_s_at) / Fold change /veh TPSAB1 /// TPSB2 (11721975_s_at) / RFU GSTM3 (11746129_a_at) / Fold change /veh GSTM3 (11746129_a_at) / RFU IL23R (11737362_x_at) / Fold change /veh IL23R (11737362_x_at) / RFU TMEM51 (11727254_a_at) / Fold change /veh TMEM51 (11727254_a_at) / RFU PIWIL2 (11732686_x_at) / Fold change /veh PIWIL2 (11732686_x_at) / RFU ORM1 (11744905_x_at) / Fold change /veh ORM1 (11744905_x_at) / RFU CCDC152 (11743942_at) / Fold change /veh CCDC152 (11743942_at) / RFU ECM1 (11717891_a_at) / Fold change /veh ECM1 (11717891_a_at) / RFU IL23R (11748794_a_at) / Fold change /veh IL23R (11748794_a_at) / RFU TNFAIP8L3 (11732012_x_at) / Fold change /veh TNFAIP8L3 (11732012_x_at) / RFU MBOAT4 (11741988_at) / Fold change /veh MBOAT4 (11741988_at) / RFU 11764193_at / Fold change /veh 11764193_at / RFU TMEM53 (11763286_at) / Fold change /veh TMEM53 (11763286_at) / RFU MAGEB2 (11727129_at) / Fold change /veh MAGEB2 (11727129_at) / RFU TMEM200A (11744735_a_at) / Fold change /veh TMEM200A (11744735_a_at) / RFU CCDC152 (11751479_a_at) / Fold change /veh CCDC152 (11751479_a_at) / RFU FAM211A (11726209_a_at) / Fold change /veh FAM211A (11726209_a_at) / RFU RGS16 (11746705_a_at) / Fold change /veh RGS16 (11746705_a_at) / RFU VCAN (11755009_s_at) / Fold change /veh VCAN (11755009_s_at) / RFU RHOB (11743442_s_at) / Fold change /veh RHOB (11743442_s_at) / RFU RGS16 (11720943_a_at) / Fold change /veh RGS16 (11720943_a_at) / RFU RGS16 (11720944_at) / Fold change /veh RGS16 (11720944_at) / RFU, VPS4B / Fold change vs veh, VPS4B / RFU, CREB1 / Fold change vs veh, CREB1 / RFU, DNAJC13 / Fold change vs veh, DNAJC13 / RFU, GNAQ / Fold change vs veh, GNAQ / RFU, CDK5R1 / Fold change vs veh, CDK5R1 / RFU, ZRANB3 / Fold change vs veh, ZRANB3 / RFU, CUL4A / Fold change vs veh, CUL4A / RFU, CCNY / Fold change vs veh, CCNY / RFU, UFL1 / Fold change vs veh, UFL1 / RFU, COG3 / Fold change vs veh, COG3 / RFU, DIAPH2 / Fold change vs veh, DIAPH2 / RFU, SKA2 / Fold change vs veh, SKA2 / RFU, AFF3 / Fold change vs veh, AFF3 / RFU, LMF1 / Fold change vs veh, LMF1 / RFU, IPO11 / Fold change vs veh, IPO11 / RFU, DFFB / Fold change vs veh, DFFB / RFU, FOXP1 / Fold change vs veh, FOXP1 / RFU, CARD8 / Fold change vs veh, CARD8 / RFU, STRN3 / Fold change vs veh, STRN3 / RFU, ADK / Fold change vs veh, ADK / RFU, RASSF2 / Fold change vs veh, RASSF2 / RFU, WIPF1 / Fold change vs veh, WIPF1 / RFU, LARP1B / Fold change vs veh, LARP1B / RFU, RASA1 / Fold change vs veh, RASA1 / RFU, RB1 / Fold change vs veh, RB1 / RFU, PPFIA1 / Fold change vs veh, PPFIA1 / RFU, MAT2A / Fold change vs veh, MAT2A / RFU, CCT5 / Fold change vs veh, CCT5 / RFU, WDR92 / Fold change vs veh, WDR92 / RFU, CUX1 / Fold change vs veh, CUX1 / RFU, TTC7A / Fold change vs veh, TTC7A / RFU, TMEM135 / Fold change vs veh, TMEM135 / RFU, DEPTOR / Fold change vs veh, DEPTOR / RFU, CPM / Fold change vs veh, CPM / RFU, DNAJB6 / Fold change vs veh, DNAJB6 / RFU, CACNA2D3 / Fold change vs veh, CACNA2D3 / RFU, DTX4 / Fold change vs veh, DTX4 / RFU, TFCP2 / Fold change vs veh, TFCP2 / RFU, GMCL1 /// GMCL1P1 / Fold change vs veh, GMCL1 /// GMCL1P1 / RFU, AEBP2 / Fold change vs veh, AEBP2 / RFU, SNHG1 /// SNORD22 /// SNORD25 /// SNORD26 /// SNORD27 /// SNORD28 /// SNORD29 /// SNORD31 / Fold change vs veh, SNHG1 /// SNORD22 /// SNORD25 /// SNORD26 /// SNORD27 /// SNORD28 /// SNORD29 /// SNORD31 / Fold change (Aza/veh), C12orf56 (ProbeSet 11735607_a_at) / Fold change (ACY-1035/veh), C12orf56 (ProbeSet 11735607_a_at) / Fold change (Aza/veh), FGFR1OP (ProbeSet 11751329_s_at) / Fold change (ACY-1035/veh), FGFR1OP (ProbeSet 11751329_s_at) / Fold change (Aza/veh), VPS36 (ProbeSet 11739960_a_at) / Fold change (ACY-1035/veh), VPS36 (ProbeSet 11739960_a_at) / RFU SYPL1 (11715823_x_at) / Fold change /veh SYPL1 (11715823_x_at) / RFU IGFBP7 (11715501_s_at) / Fold change /veh IGFBP7 (11715501_s_at) / RFU REEP3 (11722064_at) / Fold change /veh REEP3 (11722064_at) / RFU IGLL1 (11728026_x_at) / Fold change /veh IGLL1 (11728026_x_at): dose or concentration left out as unconfirmed
Details: MV-4-11 cells, 48 hours

Nc1ccc(-c2cccs2)cc1NC(=O)c1ccc2c(c1)cc(C1CC1)n2CCN1CCOCC1 [ACY-1035]
Fold change /veh OR2T12 /// OR2T33 /// OR2T8 (11738714_s_at): 1.06
